In US20230192686A1, “1H-PYRROLO[2,3-B]PYRIDINES AND PREPARATION AND USES THEREOF” (BioSplice Therapeutics, Inc., priority 2021, published 2023) one finds EC50 data, which are given here for 28 compounds.

The target in assay [1] is recombinant DYRK1A kinase (Homo sapiens, UniProt Q13627). Kind of assay: DYRK1A kinase assay (Ser/Thr 18 peptide Z-lyte FRET). The format is biochemical. As to conditions: DYRK1A kinase activity; 15 μM ATP, 4 μM Ser/Thr peptide 18, one hour at room temperature. In short, it runs like this:
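Recombinant DYRK1A at 0.25 μg/mL was incubated 1 h at room temperature with 15 μM ATP, 4 μM Ser/Thr 18 peptide and compound, in duplicate, 11-point series from 10 μM. Phosphorylation was read by Z-lyte FRET after 1 h protease development, as the coumarin/fluorescein emission ratio converted to % phosphorylation. IC50 by non-linear regression.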

Assay [2] has as its system Tau phosphorylation at Thr212 (pThr212). Kind of assay: Tau phosphorylation assay, phosphoTau (Thr212) AlphaLISA in HEK293T cells transfected with DYRK1A and MAPT. Type of assay: cell-based. As to conditions: HEK-293T; HEK293T cells transfected with human DYRK1A and MAPT; compound treatment 18-24 hours; read-out: pTau (Thr212) EC50. The protocol: Representative compounds were screened using the assay procedure for tau phosphorylation activity described below.
HEK293T cells (ATCC, CRL3216) cultured in DMEM (Thermo Fisher Scientific, 10566024) supplemented with 10% FBS (Corning, 35-011-CV) and Penicillin/Streptomycin (Thermo Fisher Scientific, 15140163) were seeded in a 75 cm^2 flask at 8.1×10^6 cells/flask. The HEK293T cells were then transiently transfected with 5 μg DYRK1A (NM_001396) human untagged clone (OriGene, SC314641) and 2.5 μg MAPT (441 a.a. Tau gene) (NM_005910) human untagged clone (OriGene, TP313312) using Lipofectamine 3000 (Thermo Fisher Scientific, L30000015) and incubated for 20-30 hours in a humidified incubator at 37° C. and 5% CO2. Post-incubation, HEK293T cells transfected with the DYRK1A and MAPT expression vectors were harvested and seeded in BioCoat poly-D lysine coated 96-well plates (Corning, 354461) at 3×10^4 cells/well.
The above synthesized compounds were screened using the cell assay procedure to assess decreased Tau phosphorylation at Thr212 (pThr212) described below.
Each compound was dissolved in DMSO (Sigma-Aldrich, D8418-100 mL) as a 10 mM stock. 10 mM stocks were serially diluted 1:3, 10-point dose-response curve and added to the cells with a final concentration ranging from 20 μM to 1.1 nM. Cell were treated with compounds in duplicate and incubated for 18-24 hours in a humidified incubator at 37° C. and 5% CO2.
Following the overnight compound treatment, cells were lysed with 1× Alpha Surefire Ultra Lysis Buffer (Perkin Elmer, ALSU-LB-100ML) complemented with 1× Halt Phosphatase Inhibitor Cocktail (Thermo Fisher Scientific, 78427) and 1× Halt Protease Inhibitor Cocktail (Thermo Fisher Scientific, 78438). Lysates were spun down at 12,000 g for 10 min to remove any cellular debris and 5 μL of lysates were dispensed into a 384-well Opti-Plate (Perkin Elmer, 6007290) for the measurement of Tau phosphorylation in the phosphoTau (Thr212) AlphaLISA assay. Donor antibody, biotinylated HT7Tau (Thermo Fisher Scientific, MN1000B), and acceptor antibody, pThr212Tau (Thermo Fisher Scientific, 44740G) were both added to the cell lysates at a final concentration of 3 nM and incubated for 1 hour at room temperature. Following incubation of the lysates with the donor and acceptor antibodies, anti-rabbit IgG(Fc specific) AlphaLISA acceptor beads (Perkin Elmer, AL104C) were added at a 10 ug/mL final concentration and incubated for 1 hour at room temperature protected from light. Lastly, AlphaScreen streptavidin donor beads (PerkinElmer, 6760002) were added at 40 ug/mL final concentration and incubated for 1 hour at room temperature protected from light. Plates were read at Ex=[…], and Em=615 nm on the EnVision Multilabel Plate Reader (Perkin Elmer) phospho-Tau (Thr212) AlphaLISA signal was used to plot, draw the curve fitting, and determine each compound's EC50 in Prism (GraphPad).
In general terms: Alpha assays give light when donor and acceptor beads are brought close together.

SMILES strings stand for the structures. pEC50: −log10 of the molar value.

With `CN1CCC(NC(=O)c2cnn3ccc(-c4c[nH]c5nc(CC6CCC6)ccc45)cc23)CC1` [Compound 1640, 5-(6-(Cyclobutylmethyl)-1H-pyrrolo[2,3-b]pyridin-3-yl)-N-(1-methylpiperidin-4-yl)pyrazolo[1,5-a]pyridine-3-carboxamide], the figures for the pEC50 in assay [1] and in assay [2] were 8.22 and 6.70, respectively. For `O=C(Nc1ccncc1)c1ccc2c(-c3ccc4ncccc4c3)c[nH]c2n1` [Compound 2054, N-(Pyridin-4-yl)-3-(quinolin-6-yl)-1H-pyrrolo[2,3-b]pyridine-6-carboxamide] the same measures were 7.29 and 5.20.

Regarding `O=C1NCc2cc(-c3c[nH]c4nc(C5CC5)ccc34)ccc21` [Compound 1522, 5-(6-Cyclopropyl-1H-pyrrolo[2,3-b]pyridin-3-yl)isoindolin-1-one], the pEC50 in assay [1] was 7.92; in assay [2], 7.60.

`CCOc1ccc2c(-c3ccc4nccn4c3)c[nH]c2n1` [Compound 1750, 6-(6-Ethoxy-1H-pyrrolo[2,3-b]pyridin-3-yl)imidazo[1,2-a]pyridine]: the pEC50 in assay [1] was 8.05; in assay [2] it was 6.68. Regarding `c1cncc(-c2cnc3[nH]cc(-c4ccc5ncccc5c4)c3c2)c1` [Compound 1194, 6-(5-(Pyridin-3-yl)-1H-pyrrolo[2,3-b]pyridin-3-yl)quinoline], the pEC50 in assay [2] is 8.70.

In the case of `c1cnc2ccc(-c3c[nH]c4ncccc34)cc2c1` [Compound 87, 6-(1H-Pyrrolo[2,3-b]pyridin-3-yl)quinoline], the pEC50 in assay [1] is 8.70. As to `O=C(c1ccnc2ccc(-c3c[nH]c4ncccc34)cc12)N1CCNC2(CC2)C1` [Compound 88, (6-(1H-Pyrrolo[2,3-b]pyridin-3-yl)quinolin-4-yl)(4,7-diazaspiro[2.5]octan-7-yl)methanone], the pEC50 in assay [1] was 8.52. For `CN1CC[C@@H](NC(=O)c2cnn3ccc(-c4c[nH]c5ncccc45)cc23)[C@H](F)C1` [Compound 44, N-((3R,4R)-3-Fluoro-1-methylpiperidin-4-yl)-5-(1H-pyrrolo[2,3-b]pyridin-3-yl)pyrazolo[1,5-a]pyridine-3-carboxamide], the pEC50 in assay [1] was 9.00.

`Cc1nc2c(F)cc(-c3c[nH]c4ncc(NC(=O)c5ccnc(N6CCNCC6)c5)cc34)cc2n1C(C)C` [Compound 829, N-(3-(4-Fluoro-1-isopropyl-2-methyl-1H-benzo[d]imidazol-6-yl)-1H-pyrrolo[2,3-b]pyridin-5-yl)-2-(piperazin-1-yl)isonicotinamide]: the pEC50 in assay [1] was 8.70.

As for `CN1CCN(C(=O)c2cnn3ccc(-c4c[nH]c5nc(C6CC6)ccc45)cc23)CC1` [Compound 1517, (5-(6-Cyclopropyl-1H-pyrrolo[2,3-b]pyridin-3-yl)pyrazolo[1,5-a]pyridin-3-yl)(4-methylpiperazin-1-yl)methanone], the pEC50 in assay [1] is 7.18. Regarding `CN1CCC(Nc2ncnc3ccc(-c4c[nH]c5ncc(-c6cnn(C)c6)cc45)cc23)CC1` [Compound 1074, 6-(5-(1-Methyl-1H-pyrazol-4-yl)-1H-pyrrolo[2,3-b]pyridin-3-yl)-N-(1-methylpiperidin-4-yl)quinazolin-4-amine], in assay [1], the pEC50 was 7.72.

For the compound `CN1CCC(C(=O)Nc2ccc3c(-c4ccc5ncccc5c4)c[nH]c3n2)CC1` [Compound 1866, 1-Methyl-N-(3-(quinolin-6-yl)-1H-pyrrolo[2,3-b]pyridin-6-yl) piperidine-4-carboxamide], the pEC50 in assay [1] was 9.00.

On to `CN1CCC(C(=O)Nc2ccc3c(-c4ccc5c(c4)C(C)(C)CNC5=O)c[nH]c3n2)CC1` [Compound 1863, N-(3-(4,4-Dimethyl-1-oxo-1,2,3,4-tetrahydroisoquinolin-6-yl)-1H-pyrrolo[2,3-b]pyridin-6-yl)-1-methylpiperidine-4-carboxamide], for which, in assay [1], the pEC50 was 8.30. Still for that read-out and setting: under `c1cnc2ccc(-c3c[nH]c4nc(OCC5CC5)ccc34)cc2c1` [Compound 2053, 6-(6-(Cyclopropylmethoxy)-1H-pyrrolo[2,3-b]pyridin-3-yl)quinoline] stands 7.12. On the same count and under the same terms, with `c1nc2ccc(-c3c[nH]c4nc(C5CCC5)ccc34)cn2n1` [Compound 1547, 6-(6-Cyclobutyl-1H-pyrrolo[2,3-b]pyridin-3-yl)-[1,2,4]triazolo[1,5-a] pyridine] the figure was 6.92; with `O=C(NCC1(F)CNC1)c1cnn2ccc(-c3c[nH]c4ncccc34)cc12` [Compound 41, N-((3-Fluoroazetidin-3-yl)methyl)-5-(1H-pyrrolo[2,3-b]pyridin-3-yl) pyrazolo[1,5-a]pyridine-3-carboxamide], 8.70; with `COc1ccc2c(-c3ccc4nccn4c3)c[nH]c2n1` [Compound 1666, 6-(6-Methoxy-1H-pyrrolo[2,3-b]pyridin-3-yl)imidazo[1,2-a]pyridine], 7.74. As for `c1cnc2[nH]cc(-c3ccc4ncnn4c3)c2c1` [Compound 29, 6-(1H-Pyrrolo[2,3-b]pyridin-3-yl)-[1,2,4]triazolo[1,5-a]pyridine], the pEC50 in assay [1] was 8.00. The same measure, in the same setting: with `O=C(c1cnn2ccc(-c3c[nH]c4ncccc34)cc12)N1CC2(CNC2)C1` [Compound 61, (5-(1H-Pyrrolo[2,3-b]pyridin-3-yl)pyrazolo[1,5-a]pyridin-3-yl)(2,6-diazaspiro[3.3]heptan-2-yl)methanone] the figure was 8.40. On the same count and under the same terms, under `Cc1nc2c(F)cc(-c3c[nH]c4ncc(-c5ccnc(N6CCN(C)CC6)c5)cc34)cc2n1C(C)C` [Compound 1375, 4-Fluoro-1-isopropyl-2-methyl-6-(5-(2-(4-methylpiperazin-1-yl)pyridin-4-yl)-1H-pyrrolo[2,3-b]pyridin-3-yl)-1H-benzo[d]imidazole] stands 8.70; under `CN1CC2CCC(C1)N2C(=O)c1cnn2ccc(-c3c[nH]c4ncccc34)cc12` [Compound 59, (5-(1H-Pyrrolo[2,3-b]pyridin-3-yl)pyrazolo[1,5-a]pyridin-3-yl)(3-methyl-3,8-diazabicyclo[3.2.1]octan-8-yl)methanone], 7.09; under `COc1ccc2c(-c3ccc4ncccc4c3)c[nH]c2n1` [Compound 1698, 6-(6-Methoxy-1H-pyrrolo[2,3-b]pyridin-3-yl)quinoline], 8.15. On the same count and under the same terms, under `CN1CCC(NC(=O)c2cnn3ccc(-c4c[nH]c5ncc(-c6cccnc6)cc45)cc23)CC1` [Compound 1178, N-(1-Methylpiperidin-4-yl)-5-(5-(pyridin-3-yl)-1H-pyrrolo[2,3-b]pyridin-3-yl)pyrazolo[1,5-a]pyridine-3-carboxamide] stands 8.22; under `c1cnc2[nH]cc(-c3ccn4nccc4c3)c2c1` [Compound 36, 3-(Pyrazolo[1,5-a]pyridin-5-yl)-1H-pyrrolo[2,3-b]pyridine], 8.70; under `O=C(c1cnn2ccc(-c3c[nH]c4ncccc34)cc12)N1CCN(C2CC2)CC1` [Compound 56, (5-(1H-Pyrrolo[2,3-b]pyridin-3-yl)pyrazolo[1,5-a]pyridin-3-yl)(4-cyclopropylpiperazin-1-yl)methanone], 8.15.

For `CN1CCC(Oc2ccc(Nc3ncnc4ccc(-c5c[nH]c6ncccc56)cc34)cn2)CC1` [Compound 102, N-(6-((1-Methylpiperidin-4-yl)oxy)pyridin-3-yl)-6-(1H-pyrrolo[2,3-b]pyridin-3-yl)quinazolin-4-amine], the pEC50 in assay [1] was 8.70. Consider `OCc1cnc2ccc(-c3c[nH]c4ncccc34)nn12` [Compound 35, (6-(1H-Pyrrolo[2,3-b]pyridin-3-yl)imidazo[1,2-b]pyridazin-3-yl) methanol], for which, in assay [1], the pEC50 was 8.70.

Consider `CN1CCN(c2cccc(Nc3ccc4c(-c5ccc6ncccc6c5)c[nH]c4n3)c2)CC1` [Compound 1950, N-(3-(4-Methylpiperazin-1-yl)phenyl)-3-(quinolin-6-yl)-1H-pyrrolo [2,3-b]pyridin-6-amine], for which the negative-log EC50 (pEC50) in assay [1] was 7.42.

As a reminder, the pEC50 is the EC50 on a negative log10 scale, so that one unit is a factor of ten.
